Source: ChEMBL document CHEMBL5584338, “Design, Synthesis, and Biological Evaluation of 5-Amino-4-fluoro-1H-benzo[d]imidazole-6-carboxamide Derivatives as Novel and Potential MEK/RAF Complex Inhibitors Based on the "Clamp" Strategy” (J Med Chem, 2024)
pIC50: −log10 of the molar value. Activity calls are given as the source filed them. No cut-off for these calls is given here.

Tests used:
[1] = test system: MIA PaCa-2; assay: Antiproliferative activity against human MIA PaCa-2 cells harboring KRAS G12C mutant at 0.1 uM incubated for 72 hrs by CCK8 assay relative to control; type: functional
[2] = test system: MIA PaCa-2; assay: Antiproliferative activity against human MIA PaCa-2 cells harboring KRAS G12C mutant incubated for 72 hrs by CCK8 assay; type: functional, cell-based; settings: MIA PaCa-2, 72 h
[3] = molecular target: T1, Serine/threonine-protein kinase B-raf (Homo sapiens, UniProt P15056); assay: Inhibition of BRAF (unknown origin)
T1 sequence (P15056 whole entry): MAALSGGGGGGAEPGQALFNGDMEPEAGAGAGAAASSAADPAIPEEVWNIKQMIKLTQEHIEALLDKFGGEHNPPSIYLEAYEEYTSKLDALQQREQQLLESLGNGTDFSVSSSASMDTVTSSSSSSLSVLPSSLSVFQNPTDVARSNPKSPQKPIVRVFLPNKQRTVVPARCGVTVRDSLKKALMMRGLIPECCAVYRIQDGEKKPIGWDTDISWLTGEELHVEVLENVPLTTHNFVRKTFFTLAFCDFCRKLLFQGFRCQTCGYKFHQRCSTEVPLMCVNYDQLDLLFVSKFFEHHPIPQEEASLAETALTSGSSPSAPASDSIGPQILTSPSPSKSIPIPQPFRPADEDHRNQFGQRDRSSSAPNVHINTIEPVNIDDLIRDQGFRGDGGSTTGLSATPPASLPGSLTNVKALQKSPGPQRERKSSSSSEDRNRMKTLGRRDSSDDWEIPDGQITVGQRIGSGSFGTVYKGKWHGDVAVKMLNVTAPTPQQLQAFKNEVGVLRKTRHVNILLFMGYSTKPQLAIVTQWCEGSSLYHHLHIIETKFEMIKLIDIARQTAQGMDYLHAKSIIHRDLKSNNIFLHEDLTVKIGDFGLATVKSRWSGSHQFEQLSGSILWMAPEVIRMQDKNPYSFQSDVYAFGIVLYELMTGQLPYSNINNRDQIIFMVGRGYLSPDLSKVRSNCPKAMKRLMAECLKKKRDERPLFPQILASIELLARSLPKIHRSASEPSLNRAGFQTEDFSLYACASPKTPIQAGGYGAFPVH

[4] = molecular target: T1, Serine/threonine-protein kinase B-raf; assay: Inhibition of BRAF (unknown origin) assessed as remaining activity at 0.1 uM relative to control
[5] = Antiproliferative activity against mouse C26 cells harboring KRAS G12D mutant incubated for 72 hrs by CCK8 assay; type: functional, cell-based, C-26; settings: C26, 72 h
[6] = test system: HeLa; assay: Antiproliferative activity against human HeLa cells incubated for 72 hrs by CCK8 assay; type: functional, cell-based
[7] = Antiproliferative activity against rat H9c2 cells incubated for 72 hrs by CCK8 assay; type: toxicity, cell-based
[8] = molecular target: T2, Dual specificity mitogen-activated protein kinase kinase; MEK1/2 (Homo sapiens) (UniProt P36507+Q02750); assay: Inhibition of MEK phosphorylation in human MIA PaCa-2 cells upto 1 uM incubated for 4 hrs by Western blot analysis; type: cell-based
T2 sequence (P36507 whole entry, looked up): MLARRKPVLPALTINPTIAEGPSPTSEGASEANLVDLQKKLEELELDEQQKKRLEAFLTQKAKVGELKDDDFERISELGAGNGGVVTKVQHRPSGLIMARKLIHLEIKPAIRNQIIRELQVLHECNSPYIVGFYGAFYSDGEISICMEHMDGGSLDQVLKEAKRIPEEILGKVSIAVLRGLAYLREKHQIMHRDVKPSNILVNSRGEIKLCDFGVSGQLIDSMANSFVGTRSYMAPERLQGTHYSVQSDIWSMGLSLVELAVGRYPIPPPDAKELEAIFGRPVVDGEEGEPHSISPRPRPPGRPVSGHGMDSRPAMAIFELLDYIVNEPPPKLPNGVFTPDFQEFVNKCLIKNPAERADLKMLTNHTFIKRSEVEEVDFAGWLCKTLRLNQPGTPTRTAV
T2 sequence (Q02750 whole entry, looked up): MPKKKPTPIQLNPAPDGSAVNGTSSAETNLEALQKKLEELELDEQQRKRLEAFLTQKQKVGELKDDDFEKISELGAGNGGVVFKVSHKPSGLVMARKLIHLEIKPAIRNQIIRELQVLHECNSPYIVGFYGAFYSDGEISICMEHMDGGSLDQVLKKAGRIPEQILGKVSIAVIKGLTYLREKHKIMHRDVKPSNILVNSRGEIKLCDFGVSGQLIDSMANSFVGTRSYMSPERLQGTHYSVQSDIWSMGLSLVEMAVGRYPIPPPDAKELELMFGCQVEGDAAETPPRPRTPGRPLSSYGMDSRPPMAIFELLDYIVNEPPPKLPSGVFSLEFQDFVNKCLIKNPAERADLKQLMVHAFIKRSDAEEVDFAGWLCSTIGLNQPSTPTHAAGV

[9] = molecular target: T2, Dual specificity mitogen-activated protein kinase kinase; MEK1/2 (Homo sapiens); assay: Inhibition of MEK phosphorylation in human MIA PaCa-2 cells at lower concentration incubated for at least 48 hrs by Western blot analysis; type: cell-based
[10] = test system: MIA PaCa-2; assay: Inhibition of MEK1/2/BRAF complex in human MIA PaCa-2 cells at 100 nM incubated for 4 hrs by co-immunoprecipitation method; type: cell-based
[11] = test system: MIA PaCa-2; assay: Stabilization of MEK1/2/BRAF complex in human MIA PaCa-2 cells at 100 nM incubated for 4 hrs by co-immunoprecipitation method; type: cell-based
[12] = molecular target: Dual specificity mitogen-activated protein kinase kinase 1 (Homo sapiens, UniProt Q02750); assay: Inhibition of MEK1 (unknown origin) at 1 uM by kinase profiling analysis
Dual specificity mitogen-activated protein kinase kinase 1, sequence (Q02750 whole entry): as the sequence (Q02750 whole entry, looked up) above

[13] = molecular target: T3, Serine/threonine-protein kinase A-Raf (Homo sapiens) (UniProt P10398); assay: Binding affinity to ARAF (unknown origin) at 1 uM by kinase profiling analysis
T3 sequence (whole entry): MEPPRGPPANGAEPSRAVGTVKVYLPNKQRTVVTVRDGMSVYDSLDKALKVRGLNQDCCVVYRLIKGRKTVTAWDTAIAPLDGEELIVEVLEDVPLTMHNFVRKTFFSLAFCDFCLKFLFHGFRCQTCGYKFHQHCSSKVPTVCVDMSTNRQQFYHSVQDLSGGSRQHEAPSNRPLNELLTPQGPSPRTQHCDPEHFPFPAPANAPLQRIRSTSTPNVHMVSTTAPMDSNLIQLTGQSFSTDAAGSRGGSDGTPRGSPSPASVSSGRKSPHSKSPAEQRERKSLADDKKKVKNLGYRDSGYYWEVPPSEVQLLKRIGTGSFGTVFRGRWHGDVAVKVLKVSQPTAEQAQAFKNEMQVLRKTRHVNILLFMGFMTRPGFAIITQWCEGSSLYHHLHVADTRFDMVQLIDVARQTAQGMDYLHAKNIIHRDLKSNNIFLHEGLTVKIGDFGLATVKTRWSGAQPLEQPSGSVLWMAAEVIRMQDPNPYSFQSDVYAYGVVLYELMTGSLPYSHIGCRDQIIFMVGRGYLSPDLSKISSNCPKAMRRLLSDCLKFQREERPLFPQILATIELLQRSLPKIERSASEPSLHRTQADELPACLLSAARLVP

[14] = molecular target: T1, Serine/threonine-protein kinase B-raf; assay: Inhibition of BRAF (unknown origin) at 1 uM by kinase profiling analysis
[15] = species on record: Homo sapiens; assay: Inhibition of BRAF […] mutant (unknown origin) at 1 uM by kinase profiling analysis
[16] = test system: MIA PaCa-2; assay: Inhibition of colony formation in human MIA PaCa-2 cells incubated for 10 days by crystal violet staining based analysis; type: functional, cell-based; settings: dose 0.01-1 µM, time 10.0 day
[17] = test system: MIA PaCa-2; assay: Induction of apoptosis in human MIA PaCa-2 cells assessed as increase in cleaved caspase-3 level upto 1 uM incubated for 24 hrs by Western blot analysis; type: functional, cell-based
[18] = test system: HUVEC; assay: Inhibition of cell migration in human HUVEC cells at 0.01 to 1 uM incubated for 24 hrs by wound healing assay; type: functional, cell-based; settings: dose 0.01-1 µM
[19] = test system: MIA PaCa-2; assay: Induction of apoptosis in human MIA PaCa-2 cells assessed as increase in cleaved PARP-1 level upto 1 uM incubated for 24 hrs by Western blot analysis; type: functional, cell-based
[20] = test system: MIA PaCa-2; assay: Induction of apoptosis in human MIA PaCa-2 cells assessed as early apoptotic cells at 0.05 uM incubated for 24 hrs by Annexin V-FITC/PI staining based flow cytometry (reference value: 5.02 %); type: functional
[21] = test system: MIA PaCa-2; assay: Induction of apoptosis in human MIA PaCa-2 cells assessed as early apoptotic cells at 5 uM incubated for 24 hrs by Annexin V-FITC/PI staining based flow cytometry (reference value: 5.02 %); type: functional
[22] = test system: MIA PaCa-2; assay: Induction of apoptosis in human MIA PaCa-2 cells assessed as late apoptotic cells at 0.05 uM incubated for 24 hrs by Annexin V-FITC/PI staining based flow cytometry (reference value: 6.90 %); type: functional
[23] = test system: MIA PaCa-2; assay: Induction of apoptosis in human MIA PaCa-2 cells assessed as late apoptotic cells at 0.25 uM incubated for 24 hrs by Annexin V-FITC/PI staining based flow cytometry (reference value: 6.90 %); type: functional
[24] = test system: MIA PaCa-2; assay: Induction of cell cycle arrest at G0/G1 phase in human MIA PaCa-2 cells at 0.01 to 0.25 uM incubated for 24 hrs by PI/RNase staining based flow cytometry (reference value: 47.37 %); type: functional; settings: dose 0.01-0.25 µM
[25] = test system: HCT-116; assay: Induction of cell cycle arrest at G0/G1 phase in human HCT-116 cells at 0.1 to 2.5 uM incubated for 24 hrs by PI/RNase staining based flow cytometry (reference value: 61.35 %); type: functional; settings: dose 0.1-2.5 µM
[26] = Half life in Sprague-Dawley rat at 5 mg/kg, iv; type: ADME, organism-based; settings: in vivo
[27] = test system: HCT-116; assay: Antitumor activity against human HCT-116 cells harboring KRAS G13D mutant xenografted in NU/NU mouse assessed as tumor growth inhibition administered intravenously 5 times a week for 16 days; type: functional, cell-based; settings: dose 15-30 mg/kg, route iv, time 16.0 day
[28] = Toxicity in BALB/c mouse xenografted with […] harboring KRAS G12D mutant assessed as body weight change at 5 to 30 mg/kg, iv administered 5 times a week for 12 days; type: organism-based, C-26; settings: in vivo, 288 h, dose 5-30 mg/kg, time 12 day
[29] = Toxicity in NU/NU mouse xenografted with human HCT-116 cells harboring KRAS G13D mutant assessed as body weight change at 15 to 30 mg/kg, iv administered 5 times a week for 16 days; type: organism-based; settings: in vivo, 384 h, dose 15-30 mg/kg, time 16 day
[30] = test system: Mitogen-activated protein kinase 1/3 (ERK1/2) (Homo sapiens); assay: Inhibition of ERK phosphorylation in human MIA PaCa-2 cells upto 1 uM incubated for 4 hrs by Western blot analysis

Q: For `CCNS(=O)(=O)Nc1cccc(Cn2cnc3c(F)c(Nc4ccc(C5CC5)cc4F)c(C(=O)NOCCO)cc32)c1F`, which inhibition at 0.1 µM [1] is on record?
A: 85%

Q: What about the pIC50 [2] of the same compound?
A: 7.96

Q: What about the pIC50 [3] of the same compound?
A: 8.52

Q: What about the Activity [4] of the same compound?
A: -3%

Q: And the pIC50 [5]?
A: 7.02

Q: And the pIC50 [6]?
A: < 5.00

Q: And the IC50 at 72 h [7]?
A: > 50000 nM

Q: What about the inhibition [8] of the same compound?
A: Active

Q: And the inhibition [9]?
A: Active

Q: And the inhibition [10]?
A: Active

Q: And the Activity [11]?
A: Active

Q: And the inhibition [12]?
A: Active

Q: What about the Activity [13] of the same compound?
A: Active

Q: And the inhibition [14]?
A: Active

Q: And the inhibition [15]?
A: Active

Q: What about the inhibition [16] of the same compound?
A: Dose-Dependent Effect

Q: And the Activity [17]?
A: Active

Q: And the inhibition [18]?
A: Active

Q: And the Activity [19]?
A: Active

Q: What about the Activity [20] of the same compound?
A: 10.7%

Q: What about the Activity [21] of the same compound?
A: 42.1%

Q: And the Activity [22]?
A: 6.59%

Q: What about the Activity [23] of the same compound?
A: 7.36%

Q: What about the Activity [24] of the same compound?
A: 87.94%

Q: And the Activity [25]?
A: 79.63%

Q: What about the half-life [26] of the same compound?
A: 55.2 min

Q: What about the inhibition [27] of the same compound?
A: Active

Q: And the Activity [28]?
A: Non-Toxic

Q: What about the Activity [29] of the same compound?
A: Non-Toxic

Q: And the inhibition [30]?
A: Active
